The test system of this assay is Mycobacterium tuberculosis strain H37Rv. Kind of assay: Test 2: MIC determination against M. tuberculosis, resazurin fluorescence. Type of assay: cell-based. Conditions: Mycobacterium tuberculosis, H37RV, Test 2, M. tuberculosis H37Rv; for MIC90: read-out: Bacterial activity MIC90; for IC50: read-out: Bacterial activity pMIC50 (converted). On the technique in general: Resazurin is reduced to fluorescent resorufin, in cell work by metabolically active cells.

As usually defined, the MIC90 is an inhibitory concentration at the 90% level, which refers to growth in some studies and to a panel of isolates in others.

Values after ≈ are worked out from the molar mass of the structure shown.

Regarding `CCc1nc2ncc(C)cn2c1C(=O)NCc1ccc(-c2nc3n(n2)CCCC3)c(C)n1` [Compound 148], the MIC90 is over 0.5 µM and the IC50 was 331000 pM.

Consider `CCc1nc2ncccn2c1C(=O)NCc1ccc(-c2nc3n(n2)CCC(C)C3)cc1` (stereo not drawn) [Compound 149], for which the MIC90 is over 0.5 µM and the IC50 is 229000 pM.

As for `[2H]C([2H])([2H])c1cnc2nc(CC)c(C(=O)NCc3ccc(-c4nc5n(n4)CC[C@@H](C)C5)cc3)n2c1` [Compound 150], the MIC90 amounted to 0.03 µM (≈ 0.013 µg/mL) and the IC50 was 10000 pM.

Turning to `CCc1nc2ccc(C(F)(F)F)cn2c1C(=O)NCc1ccc(-c2cn3c(n2)C[C@@H](C(F)(F)F)CC3)cc1` [Compound 153], the MIC90 was over 0.5 µM and the IC50 was over 501000 pM.

Turning to `CCc1nc2ccc(C(F)(F)F)cn2c1C(=O)NCc1ccc(-c2cn3c(n2)C[C@H](C(F)(F)F)CC3)cc1` [Compound 154], the MIC90 is over 0.5 µM and the IC50 is over 501000 pM.

Take `CCc1nc2ncc(C(F)(F)F)cn2c1C(=O)NCc1ccc(-c2nc3n(n2)CC[C@@H](C)C3)cc1` [Compound 155]: the MIC90 was over 0.5 µM and the IC50 is over 501000 pM.

`CCc1nc2ncccn2c1C(=O)NCc1ccc(-c2nc3n(n2)CC[C@@H](C)C3)cc1` [Compound 156]: the MIC90 is over 0.5 µM and the IC50 was 191000 pM.

As to `CCc1nc2ncccn2c1C(=O)NCc1ccc(-c2nc3n(n2)CC[C@H](C)C3)cc1` [Compound 157], the MIC90 was determined as 0.41 µM (≈ 0.17 µg/mL) and the IC50 is 126000 pM.

As to `CCc1nc2ncccn2c1C(=O)NCc1ccc(-c2cn3c(n2)C[C@H](C(F)(F)F)CC3)cc1` [Compound 158], the MIC90 stood at 0.29 µM (≈ 0.136 µg/mL) and the IC50 is 75900 pM.

Consider `CCc1nc2ccccn2c1C(=O)NCc1ccc(-c2nc3n(n2)CC[C@H](C)C3)cc1` [Compound 159], for which the MIC90 was 0.037 µM (≈ 0.0153 µg/mL) and the IC50 was 11000 pM.

Take `CCc1nc2n(c1C(=O)NCc1ccc(-c3nc4n(n3)CC[C@H](C)C4)cc1)CCCC2` [Compound 160]: the MIC90 was 0.088 µM (≈ 0.0368 µg/mL) and the IC50 was 35500 pM.

As to `CCc1nc2ccccn2c1C(=O)NCc1ccc(-c2cn3c(n2)C[C@@H](C(F)(F)F)CC3)cc1` [Compound 161], the MIC90 stood at 0.056 µM (≈ 0.0262 µg/mL) and the IC50 is 18600 pM.

In the case of `CCc1nc2ccccn2c1C(=O)NCc1ccc(-c2nc3n(n2)CC[C@@H](C)C3)cc1` [Compound 162], the MIC90 was determined as 0.044 µM (≈ 0.0182 µg/mL) and the IC50 is 11200 pM.

Consider `CCc1nc2n(c1C(=O)NCc1ccc(-c3nc4n(n3)CC[C@@H](C)C4)cc1)CCCC2` [Compound 163], for which the MIC90 was 0.17 µM (≈ 0.0712 µg/mL) and the IC50 is 66100 pM.

Consider `CCc1nc2n(c1C(=O)NCc1ccc(-c3cn4c(n3)C[C@H](C(F)(F)F)CC4)cc1)CCCC2` [Compound 164], for which the MIC90 worked out at 0.058 µM (≈ 0.0273 µg/mL) and the IC50 is 17000 pM.

As to `CCc1nc2ccccn2c1C(=O)NCc1ccc(-c2cn3c(n2)C[C@H](C(F)(F)F)CC3)cc1` [Compound 165], the MIC90 was 0.055 µM (≈ 0.0257 µg/mL) and the IC50 is 16200 pM.

Consider `CCc1nc2ncccn2c1C(=O)NCc1ccc(-c2cn3c(n2)C[C@@H](C(F)(F)F)CC3)cc1` [Compound 166], for which the MIC90 was over 0.5 µM and the IC50 is 145000 pM.

With `CCc1nc2n(c1C(=O)NCc1ccc(-c3nc4n(n3)CC[C@@H](C(F)(F)F)C4)cc1)C[C@@H](OC)CC2` [Compound 167], the MIC90 turned out to be 0.45 µM (≈ 0.226 µg/mL) and the IC50 is 132000 pM.

Take `CCc1nc2n(c1C(=O)NCc1ccc(-c3nc4n(n3)CC[C@H](C(F)(F)F)C4)cc1)C[C@@H](OC)CC2` [Compound 168]: the MIC90 was 0.5 µM (≈ 0.251 µg/mL) and the IC50 is 174000 pM.

For `O=C(NCc1ccc(-c2nc3n(n2)CC[C@H](C(F)(F)F)C3)cc1)c1c(C(F)(F)F)nc2ncccn12` [Compound 170], the MIC90 is over 0.45 µM and the IC50 is over 275000 pM.

Regarding `CCc1nc2ncccn2c1C(=O)NCc1ccc(-c2nc3n(n2)CC[C@@H](C(F)(F)F)C3)cc1` [Compound 171], the MIC90 is 0.18 µM (≈ 0.0845 µg/mL) and the IC50 is 46800 pM.

The record behind these values is patent US20250034171A1, “IMIDAZOPYRIDINE AMIDES AND RELATED COMPOUNDS FOR USE IN THE TREATMENT OF BACTERIAL INFECTIONS” (priority 2021, published 2025).
